# According to US20230263822A1, “MODULATION OF FACTOR 11 EXPRESSION” (Ionis Pharmaceuticals, Inc., priority 2008, published 2023):
# Strand notation (5' to 3'): a small letter for the sugar, then the base; units joined by * are phosphorothioate-linked, units joined directly phosphodiester-linked; [ ] holds rarer units or linkages, { } end groups; capitals alone tell only the bases. e = 2'-O-(2-methoxyethyl) (MOE); [5mC] = 5-methylcytosine; d = 2'-deoxy (DNA)
# Legend:
# [1] = tested on: human Factor 11 mRNA; assay: Dose-dependent inhibition of human Factor 11 in HepG2 cells, electroporation 0.7-20 uM (Example 4); format: cell-based; conditions: for percent inhibition of Factor 11 at 0.7 μM / percent inhibition of Factor 11 at 2.2 μM / percent inhibition of Factor 11 at 6.7 μM / percent inhibition of Factor 11 at 20 μM: relative to untreated control cells
# In short: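 HepG2 cells electroporated with antisense gapmers at 0.7, 2.2, 6.7 and 20 μM, treated ~16 h. Factor 11 mRNA quantified by qRT-PCR (primer probe set RTS 2966), normalised to RIBOGREEN total RNA; expressed as percent inhibition versus untreated control cells.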
# [2] = tested on: human Factor 11 mRNA; assay: Antisense inhibition of human Factor 11 in HepG2 cells by microwalk gapmers, lipofectin, 75 nM (Example 3); format: cell-based
# In short: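 HepG2 cells (10,000/well) were transfected via lipofectin with 75 nM 20-mer MOE gapmers (phosphorothioate, 5-methyl-C) for about 24 h. Factor 11 mRNA was measured by qRT-PCR, normalized to RIBOGREEN total RNA, and given as percent inhibition versus untreated cells.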
# [3] = Tolerability in Sprague-Dawley rats: kidney function, urine protein/creatinine (Example 35); conditions: for Urine protein/creatinine ratio: Sprague Dawley rats; for BUN / Creatinine: Sprague-Dawley rats, plasma
# Description: A control group of four Sprague Dawley rats was injected subcutaneously with PBS twice per week for 6 weeks. Body weight measurements were taken before and throughout the treatment period. Urine samples were taken before the start of treatment. Three days after the last dose, urine samples were taken and the rats were sacrificed. Organ weights were measured and blood was collected for further analysis.
# To evaluate the effect of kidney function, plasma concentrations of blood urea nitrogen (BUN) and creatinine were measured using an automated clinical chemistry analyzer (Hitachi Olympus AU400e, Melville, N.Y.).
# [4] = After treatment, 50 mg/kg s.c. twice per week for 6 weeks
# [5] = Before antisense oligonucleotide treatment
# [6] = HepG2 cells, lipofectin, gapmers targeted to nucleobases 1275 to 1318 of SEQ ID NO: 1
# [7] = 50 mg/kg s.c. twice per week for 6 weeks
# [8] = HepG2, lipofectin, ~24 h, gapmers targeted to nucleobases 656 to 704 of SEQ ID NO: 1
substance,measurement,setting,value
412206 (antisense e[5mC]*e[5mC]*eG*eT*eG*d[5mC]*dA*dT*d[5mC]*dT*dT*dT*d[5mC]*dT*dT*eG*eG*e[5mC]*eA*eT) [compound 412206],IC50,[1],2700 nM
same,percent inhibition of Factor 11 at 0.7 μM,[1],22%
same,percent inhibition of Factor 11 at 2.2 μM,[1],39%
same,percent inhibition of Factor 11 at 6.7 μM,[1],81%
same,percent inhibition of Factor 11 at 20 μM,[1],94%
same,% inhibition,"[2]; HepG2 cells, lipofectin, gapmers targeted to nucleobases 738 to 762 of SEQ ID NO: 1",93%
"417002 (antisense GGTGCACAGTTTCTGGCAGG; 2-13-5 gapmer chemistry, further chemistry not given here) [compound 417002]",IC50,[1],2200 nM
same,percent inhibition of Factor 11 at 0.7 μM,[1],32%
same,percent inhibition of Factor 11 at 2.2 μM,[1],38%
same,percent inhibition of Factor 11 at 6.7 μM,[1],82%
same,percent inhibition of Factor 11 at 20 μM,[1],91%
same,Urine protein/creatinine ratio,[3]; [4],2.4
same,Urine protein/creatinine ratio,[3]; [5],1.0
same,% inhibition,[2]; [6],92%
"ISIS 416838: MOE gapmer, nucleobases 1018 to 1042 of SEQ ID NO: 1 (Table 6) (antisense GCAACCGGGATGATGAGTGC; MOE gapmer, wing and gap sizes not given here)",BUN,[3]; [7],4 mg/dL
same,Creatinine,[3]; [7],5 mg/dL
"416999 (antisense GCACAGTTTCTGGCAGGCCT; 2-13-5 gapmer chemistry, further chemistry not given here) [compound 416999]",IC50,[1],2800 nM
same,percent inhibition of Factor 11 at 0.7 μM,[1],20%
same,percent inhibition of Factor 11 at 2.2 μM,[1],42%
same,percent inhibition of Factor 11 at 6.7 μM,[1],77%
same,percent inhibition of Factor 11 at 20 μM,[1],88%
same,Urine protein/creatinine ratio,[3]; [4],9.1
same,Urine protein/creatinine ratio,[3]; [5],1.3
same,% inhibition,[2]; [6],92%
"416925 (antisense GGTGCACAGTTTCTGGCAGG; 3-14-3 gapmer chemistry, further chemistry not given here) [compound 416925]",IC50,[1],3900 nM
same,percent inhibition of Factor 11 at 0.7 μM,[1],0%
same,percent inhibition of Factor 11 at 2.2 μM,[1],40%
same,percent inhibition of Factor 11 at 6.7 μM,[1],76%
same,percent inhibition of Factor 11 at 20 μM,[1],80%
same,Urine protein/creatinine ratio,[3]; [4],4.3
same,Urine protein/creatinine ratio,[3]; [5],1.0
same,% inhibition,[2]; [6],98%
"416826 (antisense ATGCCCTTCATGTCTAGGTC; 5-10-5 gapmer, further chemistry not given here) [compound 416826]",IC50,[1],3200 nM
same,percent inhibition of Factor 11 at 0.7 μM,[1],2%
same,percent inhibition of Factor 11 at 2.2 μM,[1],47%
same,percent inhibition of Factor 11 at 6.7 μM,[1],86%
same,percent inhibition of Factor 11 at 20 μM,[1],82%
same,Urine protein/creatinine ratio,[3]; [4],11.4
same,Urine protein/creatinine ratio,[3]; [5],1.0
same,% inhibition,[2]; [8],94%
"412225 (antisense GCAGCGGACGGCATTGGTGC; 5-10-5 MOE gapmer, further chemistry not given here) [compound 412225]",% inhibition,[2]; [6],86%
"416856 (antisense GGCATTGGTGCACAGTTTCT; 5-10-5 gapmer, further chemistry not given here) [compound 416856]",IC50,[1],5100 nM
same,percent inhibition of Factor 11 at 0.7 μM,[1],0%
same,percent inhibition of Factor 11 at 2.2 μM,[1],29%
same,percent inhibition of Factor 11 at 6.7 μM,[1],47%
same,percent inhibition of Factor 11 at 20 μM,[1],93%
same,% inhibition,[2]; [6],95%
"416825 (antisense GCCCTTCATGTCTAGGTCCA; 5-10-5 gapmer, further chemistry not given here) [compound 416825]",IC50,[1],1300 nM
same,percent inhibition of Factor 11 at 0.7 μM,[1],27%
same,percent inhibition of Factor 11 at 2.2 μM,[1],74%
same,percent inhibition of Factor 11 at 6.7 μM,[1],92%
same,percent inhibition of Factor 11 at 20 μM,[1],98%
same,Urine protein/creatinine ratio,[3]; [4],5.4
same,Urine protein/creatinine ratio,[3]; [5],1.1
same,% inhibition,[2]; [8],92%
"417003 (antisense TGGTGCACAGTTTCTGGCAG; 2-13-5 gapmer chemistry, further chemistry not given here) [compound 417003]",IC50,[1],3900 nM
same,percent inhibition of Factor 11 at 0.7 μM,[1],0%
same,percent inhibition of Factor 11 at 2.2 μM,[1],34%
same,percent inhibition of Factor 11 at 6.7 μM,[1],75%
same,percent inhibition of Factor 11 at 20 μM,[1],89%
same,Urine protein/creatinine ratio,[3]; [4],4.8
same,Urine protein/creatinine ratio,[3]; [5],0.9
same,% inhibition,[2]; [6],89%
"ISIS 417002: MOE gapmer, nucleobases 1275 to 1318 of SEQ ID NO: 1 (Table 8) (antisense GGTGCACAGTTTCTGGCAGG; MOE gapmer, wing and gap sizes not given here)",BUN,[3]; [7],11 mg/dL
same,Creatinine,[3]; [7],1 mg/dL
"ISIS 416864: MOE gapmer, nucleobases 1275 to 1318 of SEQ ID NO: 1 (Table 8) (antisense GGCAGCGGACGGCATTGGTG; MOE gapmer, wing and gap sizes not given here)",BUN,[3]; [7],5 mg/dL
same,Creatinine,[3]; [7],6 mg/dL
"416864 (antisense GGCAGCGGACGGCATTGGTG; 5-10-5 gapmer, further chemistry not given here) [compound 416864]",IC50,[1],1400 nM
same,percent inhibition of Factor 11 at 0.7 μM,[1],32%
same,percent inhibition of Factor 11 at 2.2 μM,[1],65%
same,percent inhibition of Factor 11 at 6.7 μM,[1],78%
same,percent inhibition of Factor 11 at 20 μM,[1],90%
same,Urine protein/creatinine ratio,[3]; [4],4.0
same,Urine protein/creatinine ratio,[3]; [5],1.2
same,% inhibition,[2]; [6],93%
"413482 (antisense GGACGGCATTGGTGCACAGT; 5-10-5 MOE gapmer, further chemistry not given here) [compound 413482]",% inhibition,[2]; [6],89%
"412223 (antisense ACAGTTTCTGGCAGGCCTCG; 5-10-5 MOE gapmer, further chemistry not given here) [compound 412223]",% inhibition,[2]; [6],85%
"416838 (antisense GCAACCGGGATGATGAGTGC; 5-10-5 gapmer, further chemistry not given here) [compound 416838]",IC50,[1],5100 nM
same,percent inhibition of Factor 11 at 0.7 μM,[1],5%
same,percent inhibition of Factor 11 at 2.2 μM,[1],30%
same,percent inhibition of Factor 11 at 6.7 μM,[1],55%
same,percent inhibition of Factor 11 at 20 μM,[1],83%
same,Urine protein/creatinine ratio,[3]; [4],3.7
same,Urine protein/creatinine ratio,[3]; [5],1.2
same,% inhibition,"[2]; HepG2 cells, lipofectin, gapmers targeted to nucleobases 1018 to 1042 of SEQ ID NO: 1",94%
"412224 (antisense GCATTGGTGCACAGTTTCTG; 5-10-5 MOE gapmer, further chemistry not given here) [compound 412224]",% inhibition,[2]; [6],93%
